In patent US12595250B2, “Substituted pyrimidine compounds as multifunctional radical quenchers and their uses” (ARIZONA BOARD OF REGENTS ON BEHALF OF ARIZONA STATE …, priority 2016, dated 2026):

Legend:
[1] = system: FRDA lymphocytes; experiment: Cellular ATP concentration assay (luciferin-luciferase); assay type: cell-based, Human; details: for activity at 1 µM / activity at 5 µM / activity at 20 µM: Homo sapiens, Lymphocyte, incubation 48 h, read-out: Total ATP level (% control) FRDA lymphocytes
[2] = In vitro microsomal stability assay; assay type: in vitro ADME; details: pH 7.4, bovine liver microsomes 1 mg/mL, 25 μM compound, 37° C., NADPH, read-out: Recovery (%) of compound after reaction with activated microsomes
Description: Liver tissues were diced into small pieces and then washed with isotonic sucrose buffer (0.25 M sucrose, 10 mM Tris-HCl, 0.5 mM EDTA, pH 7.8). The diced tissue was passed through a precooled meat grinder and mixed with three-fold ice cold sucrose buffer supplemented with a mixture of protease inhibitors. The suspension was homogenized in a Waring blender for 25 s at high speed. At this stage, the pH of the suspension was adjusted to 7.4 with 1 M Tris base. The homogenate was centrifuged for 20 min at 1200×g to remove cell debris. The supernatant suspension was homogenized in a tight fitting Teflon-glass Potter-Elvehjem homogenizer and then centrifuged twice at 10,000×g for 20 min, collecting the supernatant each time to remove mitochondria. The floating fat layer was carefully removed by filtering the supernatant through layers of cheesecloth. The supernatant was centrifuged at 150,000×g for 30 min (Beckman-Coulter ultracentrifuge, XL-100K-01, SW 55 Ti rotor). The pellet (microsomal fraction) was suspended in 0.25 M sucrose buffer containing 10 mM Tris-HCl, pH 7.4, with 20% (v/v) glycerol, and centrifuged once more at 150,000×g. The pellet was resuspended in sucrose buffer with 20% (v/v) glycerol. The protein concentration after resuspension was approximately 20 mg/mL, as determined by BCA protein assay (Pierce Chemical) using bovine serum albumin as a standard. Aliquots of microsomal suspensions were stored at −80° C.
In vitro metabolic stability was determined in bovine liver microsomes at a protein concentration of 1 mg/mL in 50 mM phosphate buffer mixture, pH 7.4, containing 5 mM MgCl2 in a final incubation volume of 0.5 mL. Each test compound was added to a final concentration of 25 μM. This mixture was pre-warmed to 37° C. prior to starting the reaction by the addition of β-NADPH to 1 mM final concentration. After incubation for 30 min at 37° C., the reaction was quenched by the addition of 1 mL of propanol, vortexed for 2 min and centrifuged at 15,000×g for 10 min to pellet the precipitated protein. The resulting supernatant was pipetted out and then concentrated under diminished pressure. A parallel incubation of the test compound with deactivated microsomes (quenched immediately with propanol) lacking β-NADPH served as a control and was run for each test agent to detect microsome-independent degradation. The sample was reconstituted in 130 μL MeOH and centrifuged again at 15,000×g for 3 min. The supernatant was removed and 4 μM fluorene was added as an internal standard before HPLC analysis. HPLC analyses were performed on a Zorbax SB-Phenyl reversed phase analytical (150×4.6 mm, 5 m) HPLC column using a mobile phase consisting of MeOH/H2O. A linear gradient of (50:50 MeOH/H2O→100:0 MeOH/H2O) was employed over a period of 14 min at a flow rate of 1 mL/min. Metabolic stability was expressed as percent of control remaining. The experiments were carried out in duplicate to verify the results.

[3] = system: FRDA lymphocytes; experiment: Lipid peroxidation assay (C11-BODIPY 581/591, FACS); assay type: cell-based, Human; details: 5 mM DEM; for Suppression of lipid peroxidation, comparison of regioisomers (in words, FIG. 2): 0.1 μM (low concentration)
Description: The bar graph represents the percentage of the median mean fluorescence intensity of C11-BODIPY-green fluorescence relative to a treated control is shown. Data are expressed as the mean±SEM (n=3).
Human mitochondrial disease cell lines, Friedreich's ataxia lymphocytes (GM15850), and Leigh's syndrome lymphocytes (GM13740) were obtained from Coriell Cell Repositories (Camden, NJ). Lymphocytes were cultured in RPMI-1640 medium (Gibco, Life Technologies, Grand Island, NY) with 15% fetal calf serum, 2 mM glutamine (HyClone, South Logan, UT) and 1% penicillin-streptomycin antibiotic supplement (Cellgro, Manassas, VA). Cells were passaged every other day to maintain them in log phase growth and kept at a nominal concentration of 5-10×10^5 cell/mL. A CoQ10 deficient lymphocyte cell line (GM17932) was obtained from Coriell Cell Repositories. […]
Lipid peroxidation was measured by a quantitative FACS assay using the oxidation-sensitive fatty acid probe C11-BODIPY^581/591 (Molecular Probe) as described in art (Goldschmidt, R., et al. Bioorg. Med. Chem. 2013, 21, 969; Khdour, 0. M., et al. ACS Med. Chem. Lett. 2013, 4, 724; and Arce, P. M., et al. Bioorg. Med. Chem. 2012, 20, 5188). […] Cells were resuspended in phosphate buffered saline and were analyzed immediately by FACS (C6 Accuri, BD Biosciences, San Jose, CA), using a 488 nm excitation laser and the FL1-H channel 530±15 nm emission filter. The generation of lipid peroxide was detected as a result of the oxidation of the polyunsaturated butadienyl portion of the dye, resulting in a shift of the fluorescence emission peak from red to green. In each analysis, 10,000 events were recorded after cell debris were electronically gated out. […] Results were expressed as a percentage of the median mean fluorescence intensity of C11-BODIPY-green relative to the treated control (DEM).

[4] = system: FRDA lymphocytes; experiment: Reactive oxygen species (ROS) assay (DCFH-DA, FACS); assay type: cell-based, Human; details: high concentration, 5 mM DEM
Description: The cells were stained with 2, 7-dichlorodihydrofluorescein diacetate (DCFH-DA) for 15 minutes prior to analysis. The samples were analyzed immediately by flow cytometry (C6 Accuri, BD Biosciences, San Jose, CA). The bar graph represents the percentage of the median mean fluorescence intensity of DCF fluorescence relative to a DEM-treated control. Data shown represent the mean±SEM of two different experiments run as duplicates.
Human mitochondrial disease cell lines, Friedreich's ataxia lymphocytes (GM15850), and Leigh's syndrome lymphocytes (GM13740) were obtained from Coriell Cell Repositories (Camden, NJ). […]
Quantitative analysis of intracellular ROS levels in FRDA lymphocytes, challenged with 5 mM diethyl maleate (DEM) in presence or absence of the test compounds, was obtained by FACS analysis using a dichlorodihydrofluorescein diacetate probe (DCFH-DA), as described in art (Goldschmidt, R., et al. Bioorg. Med Chem. 2013, 21, 969; Arce, P. M., et al. Bioorg. Med Chem. 2012, 20, 5188; Arce, P. M., et al. ACS Med Chem. Lett. 2011, 2, 608; Khdour, O. M., et al. Pharm. Res. 2011, 28, 2896; Lu, J., et al. Bioorg. Med Chem. 2010, 18, 7628; and Cai, X., et al. Bioorg. Med Chem. 2012, 20, 3584). […] The samples were analyzed immediately by flow cytometry (C6 Accuri, BD Biosciences, San Jose, CA), using a 488 nm excitation laser and the FL1-H channel 530±15 nm emission filter. […]

Row | recovery at 30 min, 25 μM [2] [%] | Inhibition of ATP production (in words) ([1]; 20 μM) | Structure (SMILES) | activity at 1 µM [1] [%] | activity at 5 µM [1] [%] | activity at 20 µM ([1]; 20 μM) [%] | Suppression of lipid peroxidation, comparison of regioisomers (in words, FIG. 2) [3] | Suppression of lipid peroxidation (in words, FIG. 2) ([3]; high concentration) | Suppression of ROS (in words, FIG. 3) [4]
1 |  |  | Cc1nc(N2CCC2)nc(OC2CCC2)c1O [Compound 1a, 2-(Azetidin-1-yl)-4-cyclobutanoxy-6-methylpyrimidin-5-ol] | 100 ± 1 | 98 ± 1 | 96 ± 2 |  |  | 
2 | 63 ± 8 |  | CCCCCCCCCCCCCCc1nc(N2CCC2)nc(OC2CCC2)c1O [Compound 1b, 2-(Azetidin-1-yl)-4-cyclobutanoxy-6-tetradecylpyrimidin-5-ol] | 105 ± 3 | 102 ± 1 | 94 ± 2 |  |  | 
3 |  |  | Cc1nc(OC2CCC2)nc(N2CCC2)c1O [Compound 2a, 4-(Azetidin-1-yl)-2-cyclobutanoxy-6-methylpyrimidin-5-ol] | 101 ± 1 | 99 ± 3 | 96 ± 3 |  |  | 
4 | 77 |  | CCCCCCCCCCCCCCc1nc(OC2CCC2)nc(N2CCC2)c1O [Compound 2b, 4-(Azetidin-1-yl)-2-cyclobutanoxy-6-tetradecylpyrimidin-5-ol] | 109 ± 3 | 105 ± 2 | 54 ± 6 | significantly more efficient than 1b |  | 
5 | 63 ± 9 |  | CCCCCCCCCCCCCCCCc1nc(OC2CCC2)nc(N2CCC2)c1O [Compound 2c, 4-(Azetidin-1-yl)-2-cyclobutanoxy-6-hexadecylpyrimidin-5-ol] | 102 ± 2 | 110 ± 4 | 99 ± 2 | better than 1c |  | 
6 |  |  | Cc1nc(OC2CCC2)nc(OC2CCC2)c1O [Compound 3a, 2,4-Dicyclobutanoxy-6-methylpyrimidin-5-ol] | 101 ± 1 | 99 ± 2 | 97 ± 3 |  |  | 
7 | 72 ± 3 |  | CCCCCCCCCCCCCCc1nc(OC2CCC2)nc(OC2CCC2)c1O [Compound 3b, 2,4-Dicyclobutanoxy-6-tetradecylpyrimidin-5-ol] | 99 ± 1 | 98 ± 2 | 94 ± 2 |  | slightly efficient | appeared to be efficient
8 | 60 ± 5 |  | CCCCCCCCCCCCCCCCc1nc(OC2CCC2)nc(OC2CCC2)c1O [Compound 3c, 2,4-Dicyclobutanoxy-6-hexadecylpyrimidin-5-ol] | 98 ± 2 | 102 ± 2 | 96 ± 2 |  |  | 
9 |  | this effect seems less obvious | Cc1nc(N2CCC2)nc(N2CCC2)c1O [Compound 4a, 2,4-Di-(azetidin-1-yl)-6-methylpyrimidin-5-ol] | 101 ± 2 | 101 ± 2 | 85 ± 9 |  |  | 
10 | 63 ± 5 |  | CCCCCCCCCCCCCCc1nc(N2CCC2)nc(N2CCC2)c1O [Compound 4b, 2,4-Di-(azetidin-1-yl)-6-tetradecylpyrimidin-5-ol] | 86 ± 3 | 46 ± 7 | 1 |  |  | 
11 | 62 ± 3 |  | CCCCCCCCCCCCCCCCc1nc(N2CCC2)nc(N2CCC2)c1O [Compound 4c, 2,4-Di-(Azetidin-1-yl)-6-hexadecylpyrimidin-5-ol] | 92 ± 1 | 61 ± 9 | 1 ± 2 |  |  | 

Row | Structure (SMILES) | recovery at 30 min, 25 μM [2] [%] | Inhibition of ATP production (in words) ([1]; 20 μM) | activity at 1 µM [1] [%] | activity at 5 µM [1] [%] | activity at 20 µM ([1]; 20 μM) [%] | Suppression of lipid peroxidation, comparison of regioisomers (in words, FIG. 2) [3] | Suppression of lipid peroxidation (in words, FIG. 2) ([3]; high concentration) | Suppression of ROS (in words, FIG. 3) [4]
12 | CCCCCCCCCCCCCCCCc1nc(N2CCC2)nc(OC2CCC2)c1O [Compound 1c, 2-(Azetidin-1-yl)-4-cyclobutoxy-6-hexadecylpyrimidin-5-ol] | 65 ± 8 |  | 100 ± 1 | 114 ± 3 | 103 ± 2 |  |  | 
